Consider 1 compound from patent US8957056B2, “Migrastatin analogs in the treatment of cancer” (Sloan-Kettering Instiute for Cancer Research, priority 2004, dated 2015).

Data set [1] concerns six solid human tumor cell lines and four liquid cancer cell lines. Briefly: Chamber cell migration, various human cancer cells (overall statements). The class given is cell-based. Particulars: migration inhibition. As for the experimental part: Additional evaluation was conducted in a variety of human cancer cells and xenographs (See FIGS. 4-19). […] Unexpectedly, a very high selectivity between the various tumor cell lines was detected (Table 4 and FIG. 2). […] As stated above, non-transformed human cells such as HUVEC appear to be largely more resistant to the compounds. […] This was an unforeseen discovery, especially in light of the response observed for these compounds to the 4T1 mouse breast cancer cell line (previously reported in WO 2004/087672).
Cell migrations were assayed with 8 μm of microporous 6.5-mm transwell plates (Corning). 200 μl of 2×10^5 cells in serum-free RPMI1640 medium containing 0.5% BSA were added to the upper chamber and 600 μl of medium with 10% fetal bovine serum was added to the lower chamber. […] Cells migrated to the lower wells were collected and counted for liquid tumors, solid tumors were processed as previously described.^28 Data shown are representative of at least three experiments.

In another data set the test system is mouse 4T1 cell. Particulars: mouse 4T1 cell proliferation; previously reported (WO 2004/087672); cited from earlier work.
In data set [2] the test system is mouse breast tumor cells (4T1 cells). Briefly: Boyden chamber cell migration assay, 4T1. The class given is cell-based. Particulars: Mus musculus, 4T1, read-out: IC50 value, chamber cell migration assay.
Data set [3] in a line: Mouse blood plasma stability. Particulars: test period one hour. As for the experimental part: The biological evaluation of the compounds (in terms of their ability to inhibit cell migration) was accomplished in a Boyden chamber cell migration assay. In this assay, mouse breast tumor cells (4T1 cells) or endothelial cells (HUVECs) are seeded on the upper chamber of a transwell insert. Growth factor-containing serum is added to the lower chamber.
In anticipation of subsequent in vivo evaluation of these compounds and others, preliminary metabolic stability studies were carried out. […] As a test of the ‘deactivation hypothesis’, the hydrolysis product of macrolactone 48 was prepared (Scheme 27) and tested for its activity against tumor cell migration.

In data set [4] the test system is adherent cells (e.g. KYSE-520 cells). Briefly: Wound healing (scratch) assay, preliminary (Table 2). The format is cell-based. Particulars: 28 to 30 h, tested concentrations 200, 100, 50, 25, 10 μM. As for the experimental part: The wound healing assay was performed based on the method described by Nakae et al. (Nakae et al., J. Antibiotics (2000), 53, 1130-1136). Briefly, adherent cells were grown in a suitable media to confluence (e.g. KYSE-520 cells in RPMI-1640 with 10% FBS). Cells were starved for 24 h in serum free media A scratch (ca. 0.5 mm) was applied and the cell layer was washed twice with PBS after removal of the media. Fresh, serum free media with the test compound at the desired concentration was added and the cells were incubated for 28 to 30 h at 37° C., 5% CO2. The scratch size was compared to that observed for cells exposed to 100 μM Migrastatin. Test compounds associated with a scratch size equal to or larger than that observed for cells exposed to 100 μM Migrastatin were deemed to have cell migration inhibitory activity at least equal to Migrastatin.

The conditions of data set [5]: reported by Imoto / Kosan; read-out: IC50 value, reported activity in a wound healing assay; cited from earlier work.
The test system of another data set is HUVEC. Briefly: Tube formation assay. The format is cell-based, human. Particulars: HUVEC on matrigel, 16-18 h, tested concentrations 200, 100, 50, 25, 10 μM. As for the experimental part:
A protocol was designed based on the instructions from the provider (BD Bioscience, San Jose, Calif.). Briefly, wells of a 48 well culture dish were covert with 150 μL matrigel and the matrigel was gelatinized for 30 min at 37° C. A 80-90% confluent HUVEC (BD Bioscience, San Jose, Calif.) culture was trypsin treated, the detached cells were collected by centrifugation and resuspended in EGM-2 media (BD Bioscience, San Jose, Calif.). Cell concentration was adjusted to 100.000 cells/mL. 400 μL of the cell suspension were filled in the matrigel coated wells, and a solution of the inhibitor was added to the intended final concentration. The plates were incubated at 37° C. with 5% CO2 for 16-18 h. Media was removed, and the matrigel surface was washed twice with 500 μL PBS before cells were labeled with 250 μL 8 μM Calcein AM (Pierce, Rockford, Ill.) in PBS for 30 min at 37° C. After two additional washing steps (500 μL PBS) cells were visualized under an inverted microscope. Fluorescence was excited at 488 nm and recorded at 538 nm. The minimum effect concentration was defined as the minimal inhibitor concentration that caused a definite disturbance of the complexity of the formed tube network.

Data set [6] is described as follows: Chamber cell migration assay, preliminary (Table 3). The class given is cell-based. Particulars: 36 h, tested concentrations 200, 100, 50, 25, 10 μM. As for the experimental part: Cells were grown in an appropriate media to 70 to 80% confluence and incubated in serum and growth factor free media for 24 h. Cells were detached by trypsin treatment, collected by centrifugation and resuspended in serum free media to a final concentration of 150,000 cells/mL. 400 μL of the cell suspension were loaded into a fibronectin coated insert for 24 well multidishes. 750 μL fully supplemented media were applied to the compartment under the insert. To both chambers the inhibitor was added at the intended concentration and the plates were incubated for 36 h at 37° C., 5% CO2. […] The resulting CyQuant assay solution was transferred to the cavities of a 96 well microtiter plate and the fluorescence signal was recorded in an appropriate reader. The CyQuant dye forms a highly fluorescent complex with DNA, thus the fluorescence signal is proportional to the number of cells that migrated through the membrane in the presence of the test compound (N^inh) A positive control (i.e., without a test compound in the growth media) was carried out according to the procedure described above, except that no test compound was added. The positive control fluorescent reading correlates with the number of cells that migrate through the membrane in the absence of inhibitor (N^+). […] The anti-migratory effect of a test compound is determined by the ratio (N^inh−N^−)/(N^+−N^−).

pIC50: −log10 of the molar value. Read-outs that look alike come from different tables or passages of the source.

For the compound `CO[C@H]1/C=C/CC/C=C/C(=O)OC([C@H](C)C(=O)CCCC2CC(=O)NC(=O)C2)/C(C)=C\[C@@H](C)[C@@H]1O` (some centres unmarked) [Migrastatin (1), Migrastatin], in data set [1], the “response of the human tumor cell lines tested” value is on record as “did not respond well to any of the cell lines tested”. In addition, the pIC50 in the data set on mouse 4T1 cell is 4.38; in data set [2], 4.54; in data set [5], 4.54; in data set [6], 3.70. For the same compound, in data set [3], the “metabolic stability in mouse blood plasma” value is “completely inert toward lactone opening”. The Minimum effect concentration (in data set [4]; in the data set on HUVEC) was 100 µM throughout.
